Laboratory results as given in the supplement of paper PMC10307832.

Assays:
Assay in all cases: relative viability (nuclei count vs DMSO), 5 days (fraction); higher = more cells survive
AZ505 + Navitoclax = compound: C1CCC(CC1)N(CCNCCC2=C3C(=C(C=C2)O)NC(=O)CO3)C(=O)CCNCCC4=CC(=C(C=C4)Cl)Cl [AZ505] + CC1(C)CCC(c2ccc(Cl)cc2)=C(CN2CCN(c3ccc(C(=O)NS(=O)(=O)c4ccc(N[C@H](CCN5CCOCC5)CSc5ccccc5)c(S(=O)(=O)C(F)(F)F)c4)cc3)CC2)C1 [Navitoclax] (partner 0.5 µM)
Outline: (§1)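 Lung cancer cell lines were pin-tool dosed in 1536-well plates on the day after seeding, with either a lone drug or a fixed anchor-drug dose plus five library-drug doses (not always all listed) in √10 steps. Nuclei were counted on 4× images after 5 days. Relative viability is the ratio of treated-well to vehicle-well nuclei counts, with each value a median of duplicate plates.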

Dactolisib + Phenformin = compound: Cn1c(=O)n(-c2ccc(C(C)(C)C#N)cc2)c2c3cc(-c4cnc5ccccc5c4)ccc3ncc21 [Dactolisib] + N=C(N)NC(=N)NCCc1ccccc1 [Phenformin] (partner 250 µM)
Outline: as §1

Dactolisib + Tozasertib = compound: Cn1c(=O)n(-c2ccc(C(C)(C)C#N)cc2)c2c3cc(-c4cnc5ccccc5c4)ccc3ncc21 [Dactolisib] + Cc1cc(Nc2cc(N3CCN(C)CC3)nc(Sc3ccc(NC(=O)C4CC4)cc3)n2)n[nH]1 [Tozasertib] (partner 0.1 µM)
Outline: as §1

Dactolisib + Decitabine = compound: Cn1c(=O)n(-c2ccc(C(C)(C)C#N)cc2)c2c3cc(-c4cnc5ccccc5c4)ccc3ncc21 [Dactolisib] + Nc1ncn([C@H]2C[C@H](O)[C@@H](CO)O2)c(=O)n1 [Decitabine] (partner 2 µM)
Outline: as §1

UMC-11
relative viability (AZ505 + Navitoclax; first compound 0.08 µM): 0.26 | relative viability (AZ505 + Navitoclax; first compound 0.253 µM): 0.295 | relative viability (AZ505 + Navitoclax; first compound 0.8 µM): 0.327 | relative viability (AZ505 + Navitoclax; first compound 2.53 µM): 0.334 | relative viability (AZ505 + Navitoclax; first compound 8 µM): 0.373 | relative viability (Dactolisib + Phenformin; first compound 0.002 µM): 0.326 | relative viability (Dactolisib + Phenformin; first compound 0.006325 µM): 0.326 | relative viability (Dactolisib + Phenformin; first compound 0.02 µM): 0.315 | relative viability (Dactolisib + Phenformin; first compound 0.06325 µM): 0.218 | relative viability (Dactolisib + Phenformin; first compound 0.2 µM): 0.22 | relative viability (Dactolisib + Tozasertib; first compound 0.002 µM): 0.214 | relative viability (Dactolisib + Tozasertib; first compound 0.006325 µM): 0.198 | relative viability (Dactolisib + Tozasertib; first compound 0.02 µM): 0.216 | relative viability (Dactolisib + Tozasertib; first compound 0.06325 µM): 0.221 | relative viability (Dactolisib + Tozasertib; first compound 0.2 µM): 0.23 | relative viability (Dactolisib + Decitabine; first compound 0.002 µM): 0.577 | relative viability (Dactolisib + Decitabine; first compound 0.006325 µM): 0.601 | relative viability (Dactolisib + Decitabine; first compound 0.02 µM): 0.514 | relative viability (Dactolisib + Decitabine; first compound 0.06325 µM): 0.366 | relative viability (Dactolisib + Decitabine; first compound 0.2 µM): 0.346
